ChEMBL document CHEMBL3871307, “Discovery of Chromane Propionic Acid Analogues as Selective Agonists of GPR120 with in Vivo Activity in Rodents” (ACS Med Chem Lett, 2017)
Calls of active or inactive are those of the source. The calls are words filed in the database; no cut-off is given here.

Biological target: Free fatty acid receptor 1 (Mus musculus, UniProt Q76JU9)
Assay: Agonist activity at mouse GPR40 assessed as increase in IP1 accumulation after 60 mins by HTRF assay
Type: functional
Settings: not given

Free fatty acid receptor 1 (Mus musculus, UniProt Q76JU9), sequence (Q76JU9 whole entry): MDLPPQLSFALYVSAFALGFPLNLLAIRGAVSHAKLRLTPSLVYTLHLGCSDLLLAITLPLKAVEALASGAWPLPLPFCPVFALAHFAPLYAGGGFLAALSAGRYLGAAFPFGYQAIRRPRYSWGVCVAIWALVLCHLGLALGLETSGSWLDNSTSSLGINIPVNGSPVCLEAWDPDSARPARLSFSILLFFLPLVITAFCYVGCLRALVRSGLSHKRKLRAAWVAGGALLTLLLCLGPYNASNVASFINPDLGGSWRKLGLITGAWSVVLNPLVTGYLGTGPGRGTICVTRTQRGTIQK

Structure (SMILES)	EC50 [nM]
COc1cc(O[C@H]2C[C@H](OC)C2)nc(-c2ccc3c(c2)CC[C@H](CCC(=O)O)O3)c1F	> 10000

Biological target: T1, Free fatty acid receptor 4 (Mus musculus, UniProt Q7TMA4)
T1 sequence (Q7TMA4 whole entry): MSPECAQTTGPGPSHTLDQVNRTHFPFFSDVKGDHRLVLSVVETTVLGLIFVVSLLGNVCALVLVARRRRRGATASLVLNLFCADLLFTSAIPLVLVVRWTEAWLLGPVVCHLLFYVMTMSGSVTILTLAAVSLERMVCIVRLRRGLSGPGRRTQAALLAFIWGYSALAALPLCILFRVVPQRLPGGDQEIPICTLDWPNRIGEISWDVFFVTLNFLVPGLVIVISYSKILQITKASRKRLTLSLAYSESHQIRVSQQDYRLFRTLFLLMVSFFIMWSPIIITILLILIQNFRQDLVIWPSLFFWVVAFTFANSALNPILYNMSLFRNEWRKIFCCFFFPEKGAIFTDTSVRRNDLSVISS
Assay: Agonist activity at mouse GPR120 expressed in CHOK1 cells assessed as increase in IP1 accumulation after 60 mins by HTRF assay
Type: functional, cell-based, CHO-K1
Settings: not given

Structure (SMILES)	EC50 [nM]
COc1cc(O[C@H]2C[C@H](OC)C2)nc(-c2ccc3c(c2)CC[C@H](CCC(=O)O)O3)c1F	5.6

System: not listed separately
Assay: Protein binding in rat plasma at 0.1 mg/kg administered as iv casette dose by LC/MS/MS analysis
Type: ADME, organism-based
Settings: read-out: PPB (converted)

Structure (SMILES)	fraction unbound
O=C(O)CC[C@H]1CCc2cc(-c3cc(OC4CCC4)cc(F)c3F)ccc2O1	0.0007
O=C(O)CC[C@H]1CCc2cc(-c3nc(OC4CCC4)ccc3F)ccc2O1	0.0023
Cc1cnc(Oc2cc(Cl)c(F)c(-c3ccc4c(c3)CC[C@H](CCC(=O)O)O4)c2)s1	0.0003
COc1cc(Oc2ncc(C)s2)cc(-c2ccc3c(c2)CC[C@H](CCC(=O)O)O3)c1F	0.0007
COc1cc(O[C@H]2C[C@H](OC)C2)nc(-c2ccc3c(c2)CC[C@H](CCC(=O)O)O3)c1F	0.0032
O=C(O)CC[C@H]1CCc2cc(-c3cc(OC(F)(F)F)ccc3F)ccc2O1	0.0016

System: not listed separately
Assay: Intrinsic clearance in rat plasma at 0.1 mg/kg administered as iv casette dose by LC/MS/MS analysis
Type: ADME, organism-based
Settings: in vivo

Structure (SMILES)	CL [mL/min/kg]
O=C(O)CC[C@H]1CCc2cc(-c3cc(OC4CCC4)cc(F)c3F)ccc2O1	8700
O=C(O)CC[C@H]1CCc2cc(-c3nc(OC4CCC4)ccc3F)ccc2O1	4500
Cc1cnc(Oc2cc(Cl)c(F)c(-c3ccc4c(c3)CC[C@H](CCC(=O)O)O4)c2)s1	6200
COc1cc(Oc2ncc(C)s2)cc(-c2ccc3c(c2)CC[C@H](CCC(=O)O)O3)c1F	3600
COc1cc(O[C@H]2C[C@H](OC)C2)nc(-c2ccc3c(c2)CC[C@H](CCC(=O)O)O3)c1F	760
O=C(O)CC[C@H]1CCc2cc(-c3cc(OC(F)(F)F)ccc3F)ccc2O1	10500

System: not listed separately
Assay: Volume of distribution at steady state in rat plasma at 0.1 mg/kg administered as iv casette dose by LC/MS/MS analysis
Type: ADME, organism-based
Settings: read-out: Vdss

Structure (SMILES)	Vd [L/kg]
O=C(O)CC[C@H]1CCc2cc(-c3cc(OC4CCC4)cc(F)c3F)ccc2O1	0.45
O=C(O)CC[C@H]1CCc2cc(-c3nc(OC4CCC4)ccc3F)ccc2O1	0.23
Cc1cnc(Oc2cc(Cl)c(F)c(-c3ccc4c(c3)CC[C@H](CCC(=O)O)O4)c2)s1	0.14
COc1cc(Oc2ncc(C)s2)cc(-c2ccc3c(c2)CC[C@H](CCC(=O)O)O3)c1F	0.15
COc1cc(O[C@H]2C[C@H](OC)C2)nc(-c2ccc3c(c2)CC[C@H](CCC(=O)O)O3)c1F	0.49
O=C(O)CC[C@H]1CCc2cc(-c3cc(OC(F)(F)F)ccc3F)ccc2O1	0.64

System: not listed separately
Assay: Plasma concentration in wild type C57BL/6 transverse aortic constriction mouse harboring GPR120 at 150 mg/kg, po measured at 3 hrs
Type: ADME, organism-based
Settings: C57BL/6, mouse

Structure (SMILES)	concentration at 3 h [µM]
COc1cc(O[C@H]2C[C@H](OC)C2)nc(-c2ccc3c(c2)CC[C@H](CCC(=O)O)O3)c1F	33.5

System: not listed separately
Assay: Terminal half life in rat plasma at 0.1 mg/kg administered as iv casette dose by LC/MS/MS analysis
Type: ADME, organism-based
Settings: read-out: beta t1/2 (converted)

Structure (SMILES)	half-life [h]
O=C(O)CC[C@H]1CCc2cc(-c3cc(OC4CCC4)cc(F)c3F)ccc2O1	1.3
O=C(O)CC[C@H]1CCc2cc(-c3nc(OC4CCC4)ccc3F)ccc2O1	0.74
Cc1cnc(Oc2cc(Cl)c(F)c(-c3ccc4c(c3)CC[C@H](CCC(=O)O)O4)c2)s1	0.93
COc1cc(Oc2ncc(C)s2)cc(-c2ccc3c(c2)CC[C@H](CCC(=O)O)O3)c1F	1.2
COc1cc(O[C@H]2C[C@H](OC)C2)nc(-c2ccc3c(c2)CC[C@H](CCC(=O)O)O3)c1F	2.4
O=C(O)CC[C@H]1CCc2cc(-c3cc(OC(F)(F)F)ccc3F)ccc2O1	1.3

System: Mus musculus
Assay: In vivo agonist activity at GPR120 in wild type C57BL/6 transverse aortic constriction mouse assessed as glucose lowering effect at 150 mg/kg, po via gavage pretreated for 60 mins followed by dextrose challenge measured up to 120 mins post glucose challenge by OGTT
Type: functional, organism-based
Settings: not given

Structure (SMILES)	Activity
COc1cc(O[C@H]2C[C@H](OC)C2)nc(-c2ccc3c(c2)CC[C@H](CCC(=O)O)O3)c1F	Active

Biological target: T1, Free fatty acid receptor 4
Assay: Agonist activity at mouse GPR120 expressed in human U2OS cells assessed as beta-arrestin recruitment after 90 mins by luminescence assay
Type: cell-based
Settings: not given

Structure (SMILES)	EC50 [nM]
COc1cc(O[C@H]2C[C@H](OC)C2)nc(-c2ccc3c(c2)CC[C@H](CCC(=O)O)O3)c1F	4.6

Biological target: T2, Free fatty acid receptor 4 (Homo sapiens) (UniProt Q5NUL3)
T2 sequence (whole entry): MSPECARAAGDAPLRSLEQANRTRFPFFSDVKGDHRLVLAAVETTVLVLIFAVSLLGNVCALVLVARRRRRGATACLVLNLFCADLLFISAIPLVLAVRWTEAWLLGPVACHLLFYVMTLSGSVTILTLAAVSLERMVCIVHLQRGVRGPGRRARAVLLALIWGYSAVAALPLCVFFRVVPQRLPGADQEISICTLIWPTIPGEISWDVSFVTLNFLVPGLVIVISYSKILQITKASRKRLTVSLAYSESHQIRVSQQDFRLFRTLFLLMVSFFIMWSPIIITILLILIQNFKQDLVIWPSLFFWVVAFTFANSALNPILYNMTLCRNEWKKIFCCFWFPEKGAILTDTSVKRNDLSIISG
Assay: Agonist activity at human GPR120 short isoform expressed in CHOK1 cells assessed as increase in IP1 accumulation at 10 uM after 60 mins by HTRF assay
Type: functional, cell-based
Settings: CHO-K1

Structure (SMILES)	Activity [%]
O=C(O)CC[C@H]1CCc2cc(-c3cc(OC4CCC4)cc(F)c3F)ccc2O1	> 50
O=C(O)CC[C@H]1CCc2cc(-c3nc(OC4CCC4)ccc3F)ccc2O1	> 50
Cc1cnc(Oc2cc(Cl)c(F)c(-c3ccc4c(c3)CC[C@H](CCC(=O)O)O4)c2)s1	> 50
COc1cc(Oc2ncc(C)s2)cc(-c2ccc3c(c2)CC[C@H](CCC(=O)O)O3)c1F	> 50
COc1cc(O[C@H]2C[C@H](OC)C2)nc(-c2ccc3c(c2)CC[C@H](CCC(=O)O)O3)c1F	> 50
O=C(O)CC[C@H]1CCc2cc(-c3cc(OC(F)(F)F)ccc3F)ccc2O1	> 50

Biological target: T3, Free fatty acid receptor 4 (Homo sapiens, UniProt Q5NUL3)
T3 sequence (Q5NUL3 whole entry): T2 sequence (whole entry)
Assay: Agonist activity at human GPR120 short isoform expressed in CHOK1 cells assessed as beta-arrestin recruitment after 90 mins by luminescence assay
Type: cell-based, CHO-K1
Settings: not given

Structure (SMILES)	EC50 [nM]
O=C(O)CC[C@H]1CCc2cc(-c3cc(OC4CCC4)cc(F)c3F)ccc2O1	13
O=C(O)CC[C@H]1CCc2cc(-c3nc(OC4CCC4)ccc3F)ccc2O1	21
Cc1cnc(Oc2cc(Cl)c(F)c(-c3ccc4c(c3)CC[C@H](CCC(=O)O)O4)c2)s1	5.6
COc1cc(Oc2ncc(C)s2)cc(-c2ccc3c(c2)CC[C@H](CCC(=O)O)O3)c1F	13
COc1cc(O[C@H]2C[C@H](OC)C2)nc(-c2ccc3c(c2)CC[C@H](CCC(=O)O)O3)c1F	5
O=C(O)CC[C@H]1CCc2cc(-c3cc(OC(F)(F)F)ccc3F)ccc2O1	17

Biological target: T3, Free fatty acid receptor 4
Assay: Agonist activity at human GPR120 short isoform expressed in CHOK1 cells assessed as increase in IP1 accumulation after 60 mins by HTRF assay
Type: functional, cell-based, CHO-K1
Settings: not given

Structure (SMILES)	EC50 [nM]
O=C(O)CC[C@H]1CCc2cc(-c3cc(OC4CCC4)cc(F)c3F)ccc2O1	21
O=C(O)CC[C@H]1CCc2cc(-c3nc(OC4CCC4)ccc3F)ccc2O1	30
Cc1cnc(Oc2cc(Cl)c(F)c(-c3ccc4c(c3)CC[C@H](CCC(=O)O)O4)c2)s1	14
COc1cc(Oc2ncc(C)s2)cc(-c2ccc3c(c2)CC[C@H](CCC(=O)O)O3)c1F	37
COc1cc(O[C@H]2C[C@H](OC)C2)nc(-c2ccc3c(c2)CC[C@H](CCC(=O)O)O3)c1F	14
O=C(O)CC[C@H]1CCc2cc(-c3cc(OC(F)(F)F)ccc3F)ccc2O1	170

System: not listed separately
Assay: Plasma concentration in GPR120 knockout C57BL/6 transverse aortic constriction mouse at 150 mg/kg, po measured at 3 hrs
Type: ADME, organism-based
Settings: C57BL/6, mouse

Structure (SMILES)	concentration at 3 h [µM]
COc1cc(O[C@H]2C[C@H](OC)C2)nc(-c2ccc3c(c2)CC[C@H](CCC(=O)O)O3)c1F	27.6

System: not listed separately
Assay: Clearance in rat plasma at 0.1 mg/kg administered as iv casette dose by LC/MS/MS analysis
Type: ADME, organism-based
Settings: not given

Structure (SMILES)	clearance [mL/min/kg]
O=C(O)CC[C@H]1CCc2cc(-c3cc(OC4CCC4)cc(F)c3F)ccc2O1	5.4
O=C(O)CC[C@H]1CCc2cc(-c3nc(OC4CCC4)ccc3F)ccc2O1	9.1
Cc1cnc(Oc2cc(Cl)c(F)c(-c3ccc4c(c3)CC[C@H](CCC(=O)O)O4)c2)s1	1.6
COc1cc(Oc2ncc(C)s2)cc(-c2ccc3c(c2)CC[C@H](CCC(=O)O)O3)c1F	1.6
COc1cc(O[C@H]2C[C@H](OC)C2)nc(-c2ccc3c(c2)CC[C@H](CCC(=O)O)O3)c1F	3.4
O=C(O)CC[C@H]1CCc2cc(-c3cc(OC(F)(F)F)ccc3F)ccc2O1	9.5

Biological target: Free fatty acid receptor 1 (Homo sapiens, UniProt O14842)
Assay: Agonist activity at human GPR40 expressed in HEK293 cells assessed as increase in IP1 accumulation after 60 mins by HTRF assay
Type: functional, cell-based
Settings: not given

Free fatty acid receptor 1 (Homo sapiens, UniProt O14842), sequence (O14842 whole entry): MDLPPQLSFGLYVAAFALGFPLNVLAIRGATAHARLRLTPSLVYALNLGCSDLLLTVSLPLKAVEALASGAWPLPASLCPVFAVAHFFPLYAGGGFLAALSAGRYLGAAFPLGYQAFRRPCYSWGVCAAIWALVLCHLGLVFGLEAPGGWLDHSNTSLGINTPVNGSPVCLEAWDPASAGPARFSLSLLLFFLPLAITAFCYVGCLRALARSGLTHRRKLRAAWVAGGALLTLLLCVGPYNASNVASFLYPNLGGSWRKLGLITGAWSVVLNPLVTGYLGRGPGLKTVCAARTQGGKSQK

Structure (SMILES)	EC50 [nM]
O=C(O)CC[C@H]1CCc2cc(-c3cc(OC4CCC4)cc(F)c3F)ccc2O1	> 10000
O=C(O)CC[C@H]1CCc2cc(-c3nc(OC4CCC4)ccc3F)ccc2O1	> 10000
Cc1cnc(Oc2cc(Cl)c(F)c(-c3ccc4c(c3)CC[C@H](CCC(=O)O)O4)c2)s1	> 10000
COc1cc(Oc2ncc(C)s2)cc(-c2ccc3c(c2)CC[C@H](CCC(=O)O)O3)c1F	> 10000
COc1cc(O[C@H]2C[C@H](OC)C2)nc(-c2ccc3c(c2)CC[C@H](CCC(=O)O)O3)c1F	> 10000
O=C(O)CC[C@H]1CCc2cc(-c3cc(OC(F)(F)F)ccc3F)ccc2O1	2100
